ChEMBL document CHEMBL1201862, “PubChem BioAssay data set” (2004)
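How tested: cells in 96-well plates exposed to compound for 48 hours at five concentrations. GI50 = concentration required for 50% inhibition of growth.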 The source made the active and inactive calls. Cut-off read from the data, not from the text of the source: active = GI50 up to about 1.1 µM and inactive = higher.

Key:
Assay in all cases: NCI anticancer screen, dose series, 48 h
T47D = tested on: T47D
Malme-3M = tested on: Malme-3M
KM12 = tested on: KM12
OVCAR-5 = tested on: OVCAR-5
SF-295 = tested on: SF-295
MDA-MB-231 = tested on: MDA-MB-231
SF-268 = tested on: SF-268
SN12C = tested on: SN12C
SF-539 = tested on: SF-539
MCF7 = tested on: MCF7
COLO 205 = tested on: COLO 205
OVCAR-4 = tested on: OVCAR-4
OVCAR-8 = tested on: OVCAR-8
SK-MEL-28 = tested on: SK-MEL-28
SW-620 = tested on: SW-620
HCT-15 = tested on: HCT-15
HCC 2998 = tested on: HCC 2998
NCI/ADR-RES = tested on: NCI/ADR-RES
Hs-578T = tested on: Hs-578T
NCI-H226 = tested on: NCI-H226
SK-OV-3 = tested on: SK-OV-3
DU-145 = tested on: DU-145
786-0 = tested on: 786-0
RPMI-8226 = tested on: RPMI-8226
A498 = tested on: A498
HOP-92 = tested on: HOP-92
HL-60 = tested on: HL-60
HT-29 = tested on: HT-29
NCI-H23 = tested on: NCI-H23
SNB-75 = tested on: SNB-75
MDA-MB-435 = tested on: MDA-MB-435
U-251 = tested on: U-251
UACC-257 = tested on: UACC-257
A549 = tested on: A549
SK-MEL-5 = tested on: SK-MEL-5
HOP-62 = tested on: HOP-62
IGROV-1 = tested on: IGROV-1
ACHN = tested on: ACHN
K562 = tested on: K562
SR = tested on: SR
NCI-H460 = tested on: NCI-H460
CCRF-CEM = tested on: CCRF-CEM
RXF 393 = tested on: RXF 393
M14 = tested on: M14
HCT-116 = tested on: HCT-116
TK-10 = tested on: TK-10
MOLT-4 = tested on: MOLT-4
EKVX = tested on: EKVX
UACC-62 = tested on: UACC-62
SNB-19 = tested on: SNB-19
UO-31 = tested on: UO-31
CAKI-1 = tested on: CAKI-1
NCI-H522 = tested on: NCI-H522
OVCAR-3 = tested on: OVCAR-3
SK-MEL-2 = tested on: SK-MEL-2
MDA-N = tested on: MDA-N
LOX IMVI = tested on: LOX IMVI
PC-3 = tested on: PC-3

SMILES: CC(=O)CCC(=O)CC(O)(C(F)(F)F)C(F)(F)F
- GI50 (T47D): 11.4 µM (inactive)
- GI50 (Malme-3M): 16.7 µM (inactive)
- GI50 (KM12): 15.9 µM (inactive)
- GI50 (OVCAR-5): 12.9 µM (inactive)
- GI50 (SF-295): 12.4 µM (inactive)
- GI50 (MDA-MB-231): 19.2 µM (inactive)
- GI50 (SF-268): 22.3 µM (inactive)
- GI50 (SN12C): 20.9 µM (inactive)
- GI50 (SF-539): 16.6 µM (inactive)
- GI50 (MCF7): 18.8 µM (inactive)
- GI50 (COLO 205): 17.9 µM (inactive)
- GI50 (OVCAR-4): 19.7 µM (inactive)
- GI50 (OVCAR-8): 19.6 µM (inactive)
- GI50 (SK-MEL-28): 22.7 µM (inactive)
- GI50 (SW-620): 21.6 µM (inactive)
- GI50 (HCT-15): 20.1 µM
- GI50 (HCC 2998): 18.4 µM (inactive)
- GI50 (NCI/ADR-RES): 25.3 µM (inactive)
- GI50 (Hs-578T): 14.6 µM (inactive)
- GI50 (NCI-H226): 11.6 µM (inactive)
- GI50 (SK-OV-3): > 10 µM (inactive)
- GI50 (DU-145): 20.5 µM (inactive)
- GI50 (786-0): 16.2 µM (inactive)
- GI50 (RPMI-8226): 17.2 µM (inactive)
- GI50 (A498): 5.01 µM (inactive)
- GI50 (HOP-92): 13.6 µM (inactive)
- GI50 (HL-60): 18.5 µM (inactive)
- GI50 (HT-29): 17.8 µM (inactive)
- GI50 (NCI-H23): 21.2 µM (inactive)
- GI50 (SNB-75): 27.5 µM (inactive)
- GI50 (MDA-MB-435): 19.4 µM (inactive)
- GI50 (U-251): 17.2 µM (inactive)
- GI50 (UACC-257): 17.8 µM (inactive)
- GI50 (A549): 20.6 µM (inactive)
- GI50 (SK-MEL-5): 18.1 µM (inactive)
- GI50 (HOP-62): 17.9 µM (inactive)
- GI50 (IGROV-1): 15.4 µM (inactive)
- GI50 (ACHN): 24.8 µM (inactive)
- GI50 (K562): 15.3 µM (inactive)
- GI50 (SR): 16.4 µM (inactive)
- GI50 (NCI-H460): 20.7 µM (inactive)
- GI50 (CCRF-CEM): 21.6 µM (inactive)
- GI50 (RXF 393): 18.6 µM (inactive)
- GI50 (M14): 19.9 µM (inactive)
- GI50 (HCT-116): 16.9 µM (inactive)
- GI50 (TK-10): 22.6 µM (inactive)
- GI50 (MOLT-4): 17.9 µM (inactive)
- GI50 (EKVX): > 10 µM (inactive)
- GI50 (UACC-62): 16.8 µM (inactive)
- GI50 (SNB-19): 15.9 µM (inactive)
- GI50 (UO-31): 14.5 µM (inactive)

SMILES: N#Cc1c(N)nc2c3c1NC(=O)C(C(N)=O)C3c1ccccc1O2 (stereo not drawn)
- GI50 (CAKI-1): > 100 µM (inactive)
- GI50 (T47D): 95.9 µM (inactive)
- GI50 (Malme-3M): > 100 µM (inactive)
- GI50 (NCI-H522): 22.1 µM (inactive)
- GI50 (KM12): > 100 µM (inactive)
- GI50 (OVCAR-5): > 100 µM (inactive)
- GI50 (SF-295): 32.1 µM (inactive)
- GI50 (MDA-MB-231): 28.6 µM (inactive)
- GI50 (SF-268): 26.2 µM (inactive)
- GI50 (SN12C): > 100 µM (inactive)
- GI50 (SF-539): 74 µM (inactive)
- GI50 (MCF7): > 100 µM (inactive)
- GI50 (COLO 205): > 100 µM (inactive)
- GI50 (OVCAR-4): 95.5 µM (inactive)
- GI50 (OVCAR-8): 42.5 µM (inactive)
- GI50 (SK-MEL-28): > 100 µM (inactive)
- GI50 (SW-620): > 100 µM (inactive)
- GI50 (HCT-15): > 100 µM
- GI50 (HCC 2998): > 100 µM (inactive)
- GI50 (NCI/ADR-RES): > 100 µM (inactive)
- GI50 (NCI-H226): > 100 µM (inactive)
- GI50 (SK-OV-3): > 100 µM (inactive)
- GI50 (DU-145): 67.6 µM (inactive)
- GI50 (786-0): 37.9 µM (inactive)
- GI50 (RPMI-8226): 63 µM (inactive)
- GI50 (A498): > 100 µM (inactive)
- GI50 (HOP-92): 12.9 µM (inactive)
- GI50 (HL-60): 99.3 µM (inactive)
- GI50 (HT-29): > 100 µM (inactive)
- GI50 (NCI-H23): 71.8 µM (inactive)
- GI50 (SNB-75): 54.7 µM (inactive)
- GI50 (MDA-MB-435): > 100 µM (inactive)
- GI50 (OVCAR-3): > 100 µM (inactive)
- GI50 (U-251): > 100 µM (inactive)
- GI50 (UACC-257): > 100 µM (inactive)
- GI50 (A549): > 100 µM (inactive)
- GI50 (SK-MEL-2): > 100 µM (inactive)
- GI50 (SK-MEL-5): > 100 µM (inactive)
- GI50 (MDA-N): > 100 µM (inactive)
- GI50 (HOP-62): 60.8 µM (inactive)
- GI50 (IGROV-1): 17.3 µM (inactive)
- GI50 (ACHN): > 100 µM (inactive)
- GI50 (K562): > 100 µM (inactive)
- GI50 (SR): 62.5 µM (inactive)
- GI50 (NCI-H460): > 100 µM (inactive)
- GI50 (LOX IMVI): > 100 µM (inactive)
- GI50 (CCRF-CEM): 81.1 µM (inactive)
- GI50 (RXF 393): 75.2 µM (inactive)
- GI50 (M14): > 100 µM (inactive)
- GI50 (HCT-116): > 100 µM (inactive)
- GI50 (TK-10): > 100 µM (inactive)
- GI50 (MOLT-4): > 100 µM (inactive)
- GI50 (EKVX): 37.3 µM (inactive)
- GI50 (PC-3): > 100 µM (inactive)
- GI50 (UACC-62): 27.5 µM (inactive)
- GI50 (SNB-19): 47.9 µM (inactive)
- GI50 (UO-31): > 100 µM (inactive)
